Results reported in PubChem BioAssay (NCI).
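A five-concentration, 48-hour dose response in 96-well plates underlies each endpoint, interpolated linearly between surrounding concentrations. At the GI50, growth is halved. TGI is the concentration that stops growth completely.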

Assays:
Test in all cases: NCI-60 cell line screen, 48 h
IGROV1 ovarian = system: IGROV1 ovarian
KM12 colon = system: KM12 colon
CAKI-1 renal = system: CAKI-1 renal
RPMI-8226 leukemia = system: RPMI-8226 leukemia
ACHN renal = system: ACHN renal
UACC-62 melanoma = system: UACC-62 melanoma
NCI-H23 lung = system: NCI-H23 lung
UACC-257 melanoma = system: UACC-257 melanoma
786-0 renal = system: 786-0 renal
PC-3 prostate = system: PC-3 prostate

| Structure (SMILES) | TGI (IGROV1 ovarian) [µM] | TGI (KM12 colon) [µM] | TGI (CAKI-1 renal) [µM] | TGI (RPMI-8226 leukemia) [µM] | TGI (ACHN renal) [µM] | TGI (UACC-62 melanoma) [µM] | TGI (NCI-H23 lung) [µM] | TGI (UACC-257 melanoma) [µM] | TGI (786-0 renal) [µM] | GI50 (IGROV1 ovarian) [µM] | GI50 (KM12 colon) [µM] | GI50 (CAKI-1 renal) [µM] | GI50 (RPMI-8226 leukemia) [µM] | GI50 (ACHN renal) [µM] | GI50 (PC-3 prostate) [µM] | TGI (PC-3 prostate) [µM] | GI50 (UACC-62 melanoma) [µM] | GI50 (UACC-257 melanoma) [µM] | GI50 (786-0 renal) [µM] | GI50 (NCI-H23 lung) [µM] |
| --- | --- | --- | --- | --- | --- | --- | --- | --- | --- | --- | --- | --- | --- | --- | --- | --- | --- | --- | --- | --- |
| O=c1c(-c2ccccc2)c2oc(c1-c1ccccc1)CSCc1cccc(c1)CSC2 | > 100 | > 100 | > 100 | > 100 | > 100 | > 100 | > 100 | > 100 | 89.8 |  |  |  |  |  |  |  |  |  |  |  |
| COC(=O)C(CCCN1C(=O)c2ccccc2C1=O)C(=O)OC | > 100 | > 100 | > 100 |  | > 100 | > 100 | > 100 | > 100 | > 100 |  |  |  |  |  |  |  |  |  |  |  |
| CCCCCC[C@@H]1CCC2C(CO)[C@@H](O)CC[C@@H]2C1 (stereo partly drawn) | 34.7 | 36.2 |  | 63.2 | 33.6 | 38.6 | 30.8 | 31 | 33.5 |  |  |  |  |  |  |  |  |  |  |  |
| CC1SC(c2ccc(F)cc2)N(NC(=O)C(O)c2ccccc2)C1=O (stereo not drawn) | > 100 | > 100 | > 100 | > 100 | > 100 | > 100 |  | > 100 | > 100 | > 100 | > 100 | > 100 | > 100 | > 100 | > 100 | > 100 | > 100 | > 100 | > 100 |  |
| COc1ccc(C2[C@@H](c3ccccc3)C(=O)N2c2cc(OC)c(OC)c(OC)c2)cc1F (stereo partly drawn) | > 100 | > 100 | > 100 | 4 | > 100 | > 100 | > 100 |  | > 100 | 0.0428 | 0.0331 | 0.0332 | 0.0413 | 0.044 | 0.0403 | > 100 | 0.0543 |  | 0.0314 | 0.0489 |
| O=C(/C=C/c1ccc([N+](=O)[O-])cc1)c1ccc(NCc2nc3ccccc3[nH]2)cc1 | 18.1 | 3.47 | 21.2 |  | 23 | 26 | 15.3 | 13.8 | 10.8 |  |  |  |  |  |  |  |  |  |  |  |
| C/C(=C\CBr)CCC(Br)C(C)(C)Br (stereo not drawn) | > 100 | > 100 |  | > 100 | > 100 | > 100 | > 100 | > 100 | > 100 |  |  |  |  |  |  | > 100 |  |  |  |  |
| C=CC[C@H](C[C@H](C[C@H](C[C@H](C[C@H](C[C@H](C[C@H](C[C@H](C[C@H](C[C@H](CCCCC)OC)OC)OC)OC)OC)OC)OC)OC)OC)OC | > 100 | > 100 | > 100 | > 100 | > 100 | > 100 | > 100 | > 100 | > 100 |  |  |  |  |  |  |  |  |  |  |  |
| Oc1[nH]c2ccccc2c1N=Nc1nc(-c2ccc(Br)cc2)cs1 | 23.1 | > 100 | 39.9 |  | 49.1 | 63.2 | > 100 | 66.1 | 35.8 |  |  |  |  |  |  | > 100 |  |  |  |  |
| CC(=O)O/N=C(/C)c1ccccc1O | > 100 | > 100 | > 100 | > 100 | > 100 | > 100 | > 100 | > 100 | > 100 |  |  |  |  |  |  |  |  |  |  |  |
| CCCCN(CCCC)C(=O)C(=O)C(C(=O)c1ccc(OC)cc1)c1ccc(OC)cc1 (stereo not drawn) | > 100 | > 100 | > 100 |  | > 100 | > 100 | > 100 | > 100 | > 100 |  |  |  |  |  |  |  |  |  |  |  |
| CCc1c(OC(C)=O)c2c(NC3OCC(OC(C)=O)C(OC(C)=O)C3OC(C)=O)nc(SC)nc2oc1=O (stereo not drawn) | > 100 | > 100 | > 100 | > 100 | > 100 | > 100 | > 100 | > 100 | > 100 |  |  |  |  |  |  |  |  |  |  |  |
| COc1ccc(OC)c(N2CC(N)C2=O)c1 (stereo not drawn) | > 100 | > 100 |  | > 100 | > 100 | > 100 | > 100 | > 100 | > 100 |  |  |  |  |  |  |  |  |  |  |  |
| COc1cc(C2CC(C)(O)Oc3cc4c(cc32)OCO4)cc(OC)c1OC (stereo not drawn) | > 100 | 0.595 | > 100 | 18.7 | > 100 | > 100 | > 100 | > 100 | > 100 |  |  |  |  |  |  |  |  |  |  |  |
| N#CC(C#N)=C/C=C(\Sc1nc2ccccc2s1)c1ccc(Cl)cc1 | 12.5 | 33.6 | 9.82 |  | > 35.5 | 29.4 | 13.2 | 25.4 | 12 | 4.87 | 8.9 | 1.93 |  | 4.61 | 6.67 | 27.7 | 8.89 | 12.1 | 3.43 | 3.56 |
| Cc1ccc(/C=C/C(=O)c2cccc3ccccc23)cc1 |  | 27.9 | 32.8 | > 100 | 30.7 | 33.7 |  | 33.7 | 28.2 |  |  |  |  |  |  |  |  |  |  |  |
| Cc1cccc(C)c1NC(=O)CCCC(=O)C1/C(=N/NC(=O)CC#N)CCC/C1=N\NC(=O)CC#N (stereo not drawn) | > 100 | > 100 | > 100 | > 100 | > 100 | > 100 | > 100 | > 100 | > 100 |  |  |  |  |  |  |  |  |  |  |  |
| C[C@]12CCC3c4ccc(O)cc4CCC3C1CC[C@@]2(O)CNC(=O)/C=C/c1ccc(O)c(O)c1 (stereo partly drawn) | 7.26 | 11.1 | 33 | 50.7 | 6.14 | 17 |  | 6.54 | 24.9 | 2.47 | 2.89 | 11.7 | 8.56 | 2.41 | 5.65 | 22.8 | 5.22 | 0.0562 | 11.4 |  |
| O=C1C=CC(=O)c2nc3c(cc21)CCC3 | 34 | > 100 | 31.4 |  | 33.1 | 33 | 64.6 | 33.9 | 33.4 |  |  |  |  |  |  |  |  |  |  |  |
| COC(=O)CC(c1ccccc1)C1(c2ccccc2)SCCS1 (stereo not drawn) | > 290 | > 290 | > 290 | > 290 | > 290 | > 290 | > 290 | > 290 | > 290 |  |  |  |  |  |  |  |  |  |  |  |
